The source of these data is US20260274892A1, “MACROCYCLIC BROAD SPECTRUM ANTIBIOTICS” (RQx Pharmaceuticals, Inc., priority 2017, published 2026).

The subject of experiment [1] is Methicillin Resistant Staphylococcus aureus strain USA 200. The experiment can be described thus: Minimum inhibitory concentration (MIC), CLSI broth micro-dilution, S. aureus. The note with it: Staphylococcus aureus, MRSA / USA200, MRSA USA 200, cation adjusted Mueller Hinton Broth + 0.002% Tween-80, 35° C., 22 hours. The experiment is classed as cell-based. An outline of the steps: (§1)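 Antibacterial potency is measured as MIC by the CLSI broth dilution method. Bacteria at OD600 0.0005 in Tween-80-supplemented cation-adjusted Mueller Hinton broth face ten twofold compound dilutions for 22 h at 35° C.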

Experiment [2] concerns Escherichia coli ATCC 25922. The experiment is described as follows: Minimum inhibitory concentration (MIC), CLSI broth micro-dilution, E. coli. The experiment is classed as cell-based. To be noted: Escherichia coli, ATCC25922, 22 h. The method, boiled down: as §1
(In general: Dilution methods test growth across graded concentrations, often in twofold steps.)

Setting [3] is: Table 6, cation adjusted Mueller Hinton Broth + 0.002% Tween-80, 35° C.

What is called MIC is the lowest concentration that inhibits growth of the organism. On to `Cc1nc(-c2ccc(OC3CCC(C)(C)CC3)cc2)nc(C)c1C(=O)N[C@@H](CCN)C(=O)N(C)[C@@H]1C(=O)N[C@@H](C)C(=O)N[C@H](C(=O)NCC#N)Cc2ccc(OCCN)c(c2)-c2cc1ccc2OCCN` (racemic) [Compound 348, rac-(8S,11S,14S)-3,18-bis(2-aminoethoxy)-N-(cyanomethyl)-11-methyl-14-[methyl-[rac-(2S)-4-amino-2-[[2-[4-(4,4-dimethylcyclohexoxy)phenyl]-4,6-dimethyl-pyrimidine-5-carbonyl]amino]butanoyl]amino]-10,13-dioxo-9,12-diazatricyclo[13.3.1.12,6]icosa-1(18),2(20),3,5,15(19),16-hexaene-8-carboxamide], for which the values for the MIC in experiment [1] (Table 6) and in experiment [2] (setting [3]) were 0.023 µM and 0.19 µM, respectively.

With `CCCCCCCc1ccc(C(=O)N[C@@H](CNC)C(=O)N(C)[C@@H]2C(=O)N[C@@H](C)C(=O)N[C@H](C(=O)NCC#N)Cc3ccc(OCCN)c(c3)-c3cc2ccc3OCCN)c(C)c1` (racemic) [Compound 453, rac-(8S,11S,14S)-3,18-bis(2-aminoethoxy)-N-(cyanomethyl)-11-methyl-14-[methyl-[rac-(2S)-2-[(4-heptyl-2-methyl-benzoyl)amino]-3-(methylamino)propanoyl]amino]-10,13-dioxo-9,12-diazatricyclo[13.3.1.12,6]icosa-1(18),2(20),3,5,15(19),16-hexaene-8-carboxamide], the figures for the MIC in experiment [1] (Table 6) and in experiment [2] (setting [3]) were 0.026 µM and 1.1 µM, respectively.

In the case of `CCCCCCc1ccc(C(=O)N[C@@H](CCN)C(=O)N[C@@H]2C(=O)N[C@@H](C)C(=O)N[C@H](C(=O)NCC#N)Cc3ccc(O)c(c3)-c3cc2ccc3O)c(C)c1` (racemic) [Compound 471, rac-(8S,11S,14S)-N-(cyanomethyl)-3,18-dihydroxy-11-methyl-10,13-dioxo-14-[[rac-(2S)-4-amino-2-[(4-hexyl-2-methyl-benzoyl)amino]butanoyl]amino]-9,12-diazatricyclo[13.3.1.12,6]icosa-1(18),2(20),3,5,15(19),16-hexaene-8-carboxamide], the MIC in experiment [1] (Table 6) was found to be 0.04 µM; in experiment [2] (setting [3]) it was 5.1 µM.

On to `Cc1nc(-c2ccc3c(c2)CCCC3)ncc1C(=O)N[C@@H](CCN)C(=O)N(C)[C@@H]1C(=O)N[C@@H](C)C(=O)N[C@H](C(=O)NCC#N)Cc2ccc(OCCN)c(c2)-c2cc1ccc2OCCN` (racemic) [Compound 216, rac-(8S,11S,14S)-3,18-bis(2-aminoethoxy)-N-(cyanomethyl)-11-methyl-14-[methyl-[rac-(2S)-4-amino-2-[(4-methyl-2-tetralin-6-yl-pyrimidine-5-carbonyl)amino]butanoyl]amino]-10,13-dioxo-9,12-diazatricyclo[13.3.1.12,6]icosa-1(18),2(20),3,5,15(19),16-hexaene-8-carboxamide], for which the MIC was 0.0084 µM in experiment [1] (Table 6) and 0.2 µM in experiment [2] (setting [3]).

For `CCc1ccc(C#Cc2nc(C)c(C(=O)N[C@@H](CCN)C(=O)N(C)[C@@H]3C(=O)N[C@@H](C)C(=O)N[C@H](C(=O)NCC#N)Cc4ccc(OCCN)c(c4)-c4cc3ccc4OCCN)c(C)n2)cc1` (racemic) [Compound 307, rac-(8S,11S,14S)-3,18-bis(2-aminoethoxy)-N-(cyanomethyl)-11-methyl-14-[methyl-[rac-(2S)-4-amino-2-[[2-[2-(4-ethylphenyl)ethynyl]-4,6-dimethyl-pyrimidine-5-carbonyl]amino]butanoyl]amino]-10,13-dioxo-9,12-diazatricyclo[13.3.1.12,6]icosa-1(18),2(20),3,5,15(19),16-hexaene-8-carboxamide], the MIC in experiment [1] (Table 6) worked out at 0.033 µM; in experiment [2] (setting [3]) it was 0.2 µM.

Turning to `CCCCCOc1ccc(-c2nc(C)c(C(=O)N[C@@H](CCN)C(=O)N(C)[C@@H]3C(=O)N[C@@H](C)C(=O)N[C@H](C(=O)O)Cc4ccc(OCCN)c(c4)-c4cc3ccc4O)c(C)n2)cc1` (racemic) [Compound 642, rac-(8S,11S,14S)-3-(2-aminoethoxy)-18-hydroxy-11-methyl-14-[methyl-[rac-(2S)-4-amino-2-[[4,6-dimethyl-2-(4-pentoxyphenyl)pyrimidine-5-carbonyl]amino]butanoyl]amino]-10,13-dioxo-9,12-diazatricyclo [13.3.1.12,6]icosa-1(18),2(20),3,5,15(19), 16-hexaene-8-carboxylic acid], the MIC in experiment [1] (Table 8) came out at 0.21 µM; in experiment [2] (Table 8, cation adjusted Mueller Hinton Broth + 0.002% Tween-80, 35° C.) it was 0.23 µM.

Consider `Cc1nc(-c2ccc(C(C)(C)C)cc2O)nc(C)c1C(=O)N[C@@H](CCN)C(=O)N(C)[C@@H]1C(=O)N[C@@H](C)C(=O)N[C@H](C(=O)NCC#N)Cc2ccc(OCCN)c(c2)-c2cc1ccc2OCCN` (racemic) [Compound 298, rac-(8S,11S,14S)-3,18-bis(2-aminoethoxy)-N-(cyanomethyl)-11-methyl-14-[methyl-[rac-(2S)-4-amino-2-[[2-(4-tert-butyl-2-hydroxy-phenyl)-4,6-dimethyl-pyrimidine-5-carbonyl]amino]butanoyl]amino]-10,13-dioxo-9,12-diazatricyclo[13.3.1.12,6]icosa-1(18),2(20),3,5,15(19),16-hexaene-8-carboxamide], for which the MIC in experiment [1] (Table 6) amounted to 0.016 µM; in experiment [2] (setting [3]), 0.13 µM.

For the compound `Cc1nc(-c2ccc(OC3CCCCCC3)cc2)nc(C)c1C(=O)N[C@@H](CCN)C(=O)N(C)[C@@H]1C(=O)N[C@@H](C)C(=O)N[C@H](C(=O)NCC#N)Cc2ccc(OCCN)c(c2)-c2cc1ccc2OCCN` (racemic) [Compound 340, rac-(8S,11S,14S)-3,18-bis(2-aminoethoxy)-N-(cyanomethyl)-11-methyl-14-[methyl-[rac-(2S)-4-amino-2-[[2-[4-(cycloheptoxy)phenyl]-4,6-dimethyl-pyrimidine-5-carbonyl]amino]butanoyl]amino]-10,13-dioxo-9,12-diazatricyclo[13.3.1.12,6]icosa-1(18),2(20),3,5,15(19),16-hexaene-8-carboxamide], the MIC in experiment [1] (Table 6) is 0.023 µM; in experiment [2] (setting [3]), 0.063 µM.

Take `Cc1nc(-c2ccc(CC3CCC3)cc2)ncc1C(=O)N[C@@H](CCN)C(=O)N(C)[C@@H]1C(=O)N[C@@H](C)C(=O)N[C@H](C(=O)NCC#N)Cc2ccc(OCCN)c(c2)-c2cc1ccc2OCCN` (racemic) [Compound 217, rac-(8S,11S,14S)-3,18-bis(2-aminoethoxy)-N-(cyanomethyl)-11-methyl-14-[methyl-[rac-(2S)-4-amino-2-[[2-[4-(cyclobutylmethyl)phenyl]-4-methyl-pyrimidine-5-carbonyl]amino]butanoyl]amino]-10,13-dioxo-9,12-diazatricyclo[13.3.1.12,6]icosa-1(18),2(20),3,5,15(19),16-hexaene-8-carboxamide]: the MIC in experiment [1] (Table 6) turned out to be 0.0082 µM; in experiment [2] (setting [3]), 0.099 µM.

For `Cc1nc(-c2ccc(CC3CCCC3)cc2)ncc1C(=O)N[C@@H](CCN)C(=O)N(C)[C@@H]1C(=O)N[C@@H](C)C(=O)N[C@H](C(=O)NCC#N)Cc2ccc(OCCN)c(c2)-c2cc1ccc2OCCN` (racemic) [Compound 218, rac-(8S,11S,14S)-3,18-bis(2-aminoethoxy)-N-(cyanomethyl)-11-methyl-14-[methyl-[rac-(2S)-4-amino-2-[[2-[4-(cyclopentylmethyl)phenyl]-4-methyl-pyrimidine-5-carbonyl]amino]butanoyl]amino]-10,13-dioxo-9,12-diazatricyclo[13.3.1.12,6]icosa-1(18),2(20),3,5,15(19),16-hexaene-8-carboxamide], the MIC came to 0.012 µM in experiment [1] (Table 6) and 0.097 µM in experiment [2] (setting [3]).

As to `C[C@@H]1NC(=O)[C@@H](N(C)C(=O)[C@H](CCN)NC(=O)c2cnc(-c3ccc(C(C)(C)C)cc3)nc2N(C)C)c2ccc(OCCN)c(c2)-c2cc(ccc2OCCN)C[C@@H](C(=O)NCC#N)NC1=O` [Compound 490], the values for the MIC in experiment [1] (Table 6) and in experiment [2] (setting [3]) were 0.023 µM and 1 µM, respectively.

As for `CCCCCCc1ccc2nc(C)c(C(=O)N[C@@H](CCN)C(=O)N(C)[C@@H]3C(=O)N[C@@H](C)C(=O)N[C@H](C(=O)NCC#N)Cc4ccc(OCCN)c(c4)-c4cc3ccc4OCCN)cc2c1` (racemic) [Compound 395, rac-(8S,11S,14S)-3,18-bis(2-aminoethoxy)-N-(cyanomethyl)-11-methyl-14-[methyl-[rac-(2S)-4-amino-2-[(6-hexyl-2-methyl-quinoline-3-carbonyl)amino]butanoyl]amino]-10,13-dioxo-9,12-diazatricyclo[13.3.1.12,6]icosa-1(18),2(20),3,5,15(19),16-hexaene-8-carboxamide], the MIC came out at 0.013 µM in experiment [1] (Table 6) and 0.27 µM in experiment [2] (setting [3]).

Turning to `CC(C)=Cc1ccc(-c2nc(C)c(C(=O)N[C@@H](CCN)C(=O)N(C)[C@@H]3C(=O)N[C@@H](C)C(=O)N[C@H](C(=O)NCC#N)Cc4ccc(OCCN)c(c4)-c4cc3ccc4OCCN)c(C)n2)cc1` (racemic) [Compound 273, rac-(8S,11S,14S)-3,18-bis(2-aminoethoxy)-N-(cyanomethyl)-11-methyl-14-[methyl-[rac-(2S)-4-amino-2-[[4,6-dimethyl-2-[4-(2-methylprop-1-enyl)phenyl]pyrimidine-5-carbonyl]amino]butanoyl]amino]-10,13-dioxo-9,12-diazatricyclo[13.3.1.12,6]icosa-1(18),2(20),3,5,15(19),16-hexaene-8-carboxamide], the results for the MIC in experiment [1] (Table 6) and in experiment [2] (setting [3]) were 0.0082 µM and 0.099 µM, respectively.
